The values below come from US20020013478A1, “Calanolide analogues and methods of their use” (Sarawak Medichem Pharmaceuticals,Inc., priority 1994, published 2002).

≈ marks a conversion by molar mass, not a printed value. Read-outs that look alike come from different tables or passages of the source.

In one series the test system is HIV-1. The following applies: cited from earlier work.
Series [1] concerns AZT-resistant G-9106 strain of HIV. The following applies: cited from earlier work.
A further series relates to HBV. In words: HBV replication in cultures of 2.2.15 cells, extracellular HBV virion DNA (primary assay). The settings on record: read-out: HBV EC50.
The subject of the next series is Raji or Daudi cells. The series is described as follows: Toxicity run with the EBV assay. Type of series: cell-based, human. The following applies: Table II. The source says: IC50 (50% inhibitory concentration) is the concentration required to inhibit cell proliferation by 50%
Series [2] deals with human foreskin fibroblast cells. The series is described as follows: Toxicity run with the HCMV assay, human foreskin fibroblast cells. Type of series: cell-based. The following applies: Table II. The essentials: (§1)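 Human foreskin fibroblasts exposed to drug at 37 °C in CO2, either 72 h followed by Coulter Counter counts (triplicate counts, three replicate wells), or seven days followed by dye staining for 1 h and optical density at 550 nm.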

The test system of the next series is HCMV. The series is described as follows: HCMV semi-automated CPE-inhibition assay in human foreskin fibroblast cells. The class given is cell-based, human cytomegalovirus. The settings on record: Table II.
A further series concerns EBV. In words: EBV assay: superinfection of Raji or Daudi cells with P3HR-1, immunofluorescence for EA and VCA. Type of series: cell-based, Epstein-Barr virus. The settings on record: Table II. The method, boiled down:
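Raji cells (Burkitt's lymphoma, 60 EBV genomes/cell) or Daudi cells were superinfected with P3HR-1 EBV, and drugs were added after 45 min adsorption at 37 °C and washing. After 48 h, smears were stained with monoclonal antibodies to EA components and VCA plus fluorescein anti-mouse Ig. Fluorescence-positive cells were counted to give total EA- or VCA-positive cells per culture.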

For series [3], the system named is pyridinone-resistant A17 virus. The settings on record: cited from earlier work.
A further series has as its system G910-6 HIV viral strain. In words: In vitro MTT assay, AZT-resistant isolate (Example 37, FIGS. 1). The following applies: G910-6 strain, FIGS. 1(a)-1(e). A general note: Tetrazolium dyes change colour on reduction, which living cells bring about.
A further series relates to 2.2.15 cells. In words: Toxicity in 2.2.15 cells, neutral red dye uptake. Type of series: cell-based, human. The settings on record: Table II, read-out: HBV IC50. As for the experimental part: Cells of 2.2.15 were grown to confluence in 96-well flat-bottomed tissue culture plates and treated with compounds (in 0.2 mL culture medium/well) as described above. Four concentrations of each compound were assayed, each in triplicate cultures, in 3- to 10-fold steps. Untreated control cultures were maintained on each 96-well plate. On each 96-well plate, wells containing no cells were used to correct for light scattering.

In series [4] the test system is human T-lymphoblastic cells (CEM-SS). The settings on record: cited from earlier work.
Another series has as its system influenza A(H1N1). The series is described as follows: Influenza A inhibition of viral CPE in MDCK cells. The class given is cell-based, influenza A virus. The following applies: Table II footnote i; read-out: Others EC50, against influenza A(H1N1).
Series [5] deals with Madin Darby canine kidney (MDCK) cells. In words: Cytotoxicity run with the influenza assay. Type of series: cell-based. The settings on record: Table II footnote i; read-out: Others IC50, against influenza A(H1N1). On the procedure: Virus strains: A/Texas/36191 (H1N1) (Source: Center for Disease Control and Prevention [CDC]), A/Beijing/2/92 (H3N2) (Source: CDC), B/Panama/45/90 (Source: CDC), A/NWS/33 (H1N1) (Source: American Type Culture Collection [ATCC]). (All but A/NWS/33 are tested in the presence of trypsin). Cell lines: Madin Darby canine kidney (MDCK) cells.

The test system of series [6] is human foreskin fibroblast cells. The series is described as follows: Toxicity run with the VZV assay, human foreskin fibroblast cells. Type of series: cell-based. The settings on record: Table II. The method, boiled down:
as §1

The test system of a further series is VZV. In words: VZV plaque reduction assay in human foreskin fibroblast cells. Type of series: cell-based, varicella zoster virus. The following applies: Table II. The essentials: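 VZV at 20-30 plaques/well adsorbed 1 h onto HFF monolayers, then 0.5% agarose overlay holding drug at final 100 down to 0.03 μg/mL (1:5 steps), duplicates. Incubation 10 days, extra MEM/agarose overlay on days 3 and 6; neutral red staining, plaques counted.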

The subject of series [7] is human foreskin fibroblast cells. In words: Cell viability in the CMV plaque reduction assay (MTC). Type of series: cell-based. From the text:
Five calanolide analogues, prepared as described above, were further evaluated for their anti-HCMV activity in plaque reduction assay against various laboratory and clinical isolates (Towne, AD 169, E. Mann, Coffinan, and C9208).
Background: In a plaque reduction assay, fewer plaques than in the control indicate reduced infectivity or spread.

The subject of series [8] is Human lung carcinoma (A549) cells. In words: Cytotoxicity run with the adenovirus assay. The following applies: read-out: Others IC50, against adenovirus type-1; Table II footnote h.
Series [9] has as its system HCMV isolates Towne, AD169, E. Mann, Coffman, C9208. The series is described as follows: Anti-CMV plaque reduction assay against various laboratory and clinical isolates (Example 40). The class given is cell-based, human cytomegalovirus. On the procedure:
On the date of assay, the drug is made up at twice the desired concentration in 2x MEM and then serially diluted 1:5 in 2x MEM using six concentrations of drug. The initial starting concentration is usually 200 gg/mL down to 0.06 μg/mL. […] The media is then aspirated from the wells and 0.2 mL of virus is added to each well in duplicate with 0.2 mL of media being added to drug toxicity wells. The plates are then incubated for one hour with shaking every fifteen minutes. […] This will give final drug concentrations beginning with 100 μg/mL and ending with 0.03 μg/mL and a final agarose overlay concentration of 0.5%. The drug agarose mixture is applied to each well in 2 mL volume and the plates then incubated for three days, after which the cells were stained with a 1.5% solution of neutral red. At the end of 4-6hr incubation period, the stain is aspirated, and plaques counted using a stereomicroscope at lOx magnification. The procedure again is nearly the same as for HSV with a few minor changes. […] The assay is incubated for 14 days with the additional 1 mL overlays being applied on days four and eight. The procedure for the liquid overlay plaque assay is similar to that using the agarose overlay. The procedure for adding the virus is the same as for the regular plaque assay. The drugs are made up in a concentration to be used in MEM with 2% FBS. The drugs are not made up at 2x concentration as in the previous assays but are made up at the desired concentration. For HSV-1 and HSV-2 assays, an antibody preparation obtained from Baxter Health Care Corporation is diluted 1:500 and added to the media that the drug is diluted in. For CMV and VZV, no antibody in the overlay is utilized. For the CMV assay, additional medium without new drug is added on day five and allowed to incubate for a total of 10 days. For VZV, additional medium is added on day five and incubated for a total of 10 days. At the end of the incubation period for all of the assays, 2 mL of 1:10 dilution of stock neutral is added to each well incubated for six hours. The liquid is then aspirated off and plaques enumerated using a stereomicroscope. Five calanolide analogues, prepared as described above, were further evaluated for their anti-HCMV activity in plaque reduction assay against various laboratory and clinical isolates (Towne, AD 169, E. Mann, Coffinan, and […]).

Another series deals with measles. The series is described as follows: Measles virus inhibition of viral CPE in BSC-1 cells. The class given is cell-based. The following applies: Table II footnote g.

Protocol for HBV: Both intracellular and extracellular HBV DNA are analyzed in order to (i) allow for verification of compound efficacy and (ii) provide possible data on the target site in the HBV replication pathway for the compound from examination of the pattern of viral replicative forms. The culture medium is changed daily during the treatment period to (i) prevent the buildup of potentially toxic metabolites derived from test compounds and (ii) provide an analysis of HBV virion production during discrete 24-hour intervals which enables a quantitative comparison of any effect on virion production.
The analysis of HBV DNA is performed using blot hybridization techniques (Southern and slot blot) and [^32P]-labeled HBV-specific probes. HBV DNA levels are measured by comparison to known amounts of HBV DNA standards applied to every nitrocellulose membrane (gel or slot blot). An AMBIS beta scanner, which measures the radioactive decay of the hybridized probes directly from the nitrocellulose membranes, is used for the quantitative analysis. Standard curves, generated by multiple analyses, are used to correlate CPM measurements made by the beta scanner with relative levels of target HBV DNA. The levels of HBV virion DNA released into the culture medium are analyzed by a slot blot hybridization procedure.

As for `CCCc1cc(=O)oc2c3c(c4c(c12)OC(C)(C)C=C4)O[C@H](C)[C@@H](C)[C@@H]3O` [(+)-1, (+)-Calanolide A], the EC50 (as a rule, the midpoint of the concentration-response curve) in the series on HIV-1 (HIV-1 replication in CEM-SS cells) is 0.1 µM; in the series with HBV (Hepatitis B virus), more than 2.6 µM; in the series with HCMV (Human betaherpesvirus 5, Fibroblast), more than 20 µg/mL; with EBV (human gammaherpesvirus 4), more than 50 µg/mL. In addition, the “protection against the cytopathic effects of HIV-1” value with HIV-1 (down to a concentration of 0.1 μM) was 100%. Further, in [1], the “activity against AZT-resistant G-9106 strain of HIV” value is reported as “active”. In addition, the IC50 (in general, the midpoint of a concentration-inhibition curve) in the series on Raji or Daudi cells (Homo sapiens) is more than 50 µg/mL; in [2] (Homo sapiens, Fibroblast), 86.2 µg/mL (≈ 233 µM); with 2.2.15 cells (Homo sapiens), 175 µM; in series [4] it was 20 µM. Moreover, the “activity against pyridinone-resistant A17 virus” value in series [3] was “active”. Also, the “antiviral effect (reducing viral CPE)” value in the series with G910-6 HIV viral strain is on record as “effective in reducing viral CPE”.
`CC1Oc2c3c(c4c(-c5ccccc5)cc(=O)oc4c2C(O)C1C)OC(C)(C)C=C3` (single isomer, unassigned; (-)) [(−)-24]: the EC50 with influenza A(H1N1) is 57 µM; in the series with HBV (Table II) it was more than 10 µM. In the series on Raji or Daudi cells, the “EBV IC50” value was more than 50 µg/mL. For the same compound, the “HCMV IC50” value in series [2] turned out to be 14.4 µg/mL. Further, in the series on HCMV, the “HCMV EC50” value was more than 4.0 µg/mL. In addition, in the series on EBV, the “EBV EC50” value was more than 50 µg/mL. The IC50 in series [5] was more than 100 µM; with 2.2.15 cells it was 151 µM. The “VZV IC50” value in [6] was 12.0 µg/mL. Further, the “VZV EC50” value in the series on VZV was more than 4.0 µg/mL.
Consider `CCCc1cc(=O)oc2c3c(c4c(c12)OC(C)(C)CC4)OC(C)C(C)C3O` (single isomer, unassigned; (-)) [(−)-23], for which the “MTC (minimum drug concentration that reduced cell viability by 25%)” value was 10 µM in series [7] (isolate AD169); 10 µM in series [7] (isolate C9208); less than 100 µM in series [7] (isolate Coffman); 10 µM in [7] (isolate E. Mann); 10 µM in series [7] (isolate Towne). Also, the IC50 in series [8] was more than 100 µM; in the series with 2.2.15 cells it was 340 µM. For the same compound, the EC50 was 3.5 µM in the series with HBV (Table II); 3.16 µM in series [9] (isolate AD169); 2.99 µM in [9] (isolate C9208); 3.16 µM in series [9] (isolate Coffman); 3.16 µM in [9] (isolate E. Mann); 3.16 µM in [9] (isolate Towne). Also, in series [2], the “HCMV IC50” value worked out at 18.8 µg/mL. Further, in the series with HCMV, the “HCMV EC50” value was more than 4.0 µg/mL. Also, the “Others EC50, against measles” value in the series with measles is 20^g μM. The “VZV IC50” value in series [6] was found to be 16.0 µg/mL. Moreover, the “VZV EC50” value in the series with VZV was more than 4.0 µg/mL.
